≈ marks a conversion by molar mass, not a printed value.
Assays:
[1] = tested on: Nakaseomyces glabratus (formerly referred to as Candida glabrata); conditions: cited from earlier work
[2] = tested on: C. albicans (TEF1p-GFP) in J774A.1 cells; experiment: Visualization of C. albicans filamentation in macrophages; conditions: 4 h incubation; 0.94, 7.5 or 30 µM
[3] = tested on: echinocandin-resistant C. albicans strain (DPL15; FKS1^T1922C/FKS1^T1922C); experiment: Caspofungin potentiation dose-response assay in echinocandin-resistant strain; conditions: sub-inhibitory caspofungin (3 µg/mL); YPD, 30 °C, 48 h
C. auris = conditions: cited from earlier work
[4] = tested on: C. albicans (TEF1p-GFP) in co-culture with J774A.1 cells; experiment: C. albicans growth in co-culture with macrophages; conditions: 16 h post-infection
Cryptococcus neoformans = conditions: cited from earlier work
C. albicans (CaSS1) = experiment: C. albicans growth inhibition, two-fold dose-response assay; conditions: Candida albicans, 48 h, read-out: C. albicans MIC80
[5] = tested on: J774A.1 cells infected with C. albicans (SC5314); experiment: Macrophage killing assay
Aspergillus fumigatus = conditions: cited from earlier work
[6] = Mouse liver microsomal stability assay; conditions: mouse liver microsomes

Cc1ccc2c(-c3ccncc3)c(-c3ccc(F)cc3)nn2c1 [GW, GW461484A, reference compound]
single-agent antifungal activity in vitro [1]: no single-agent antifungal activity was observed
filamentation of C. albicans [2]: inhibited filamentation
reduction in MIC80 upon addition of caspofungin [3]: ≥ 32 fold
antifungal activity (C. auris): possesses antifungal activity
reduction of C. albicans growth in co-culture [4]: most effective
antifungal activity (Cryptococcus neoformans): possesses antifungal activity
MIC80 (C. albicans (CaSS1)): 12.5 µM (≈ 3.79 µg/mL)
macrophage viability in co-culture ([5]; 30 µM): restoring full viability
IC50 ([5]; Mus musculus, J774.A1, 24 h, read-out: IC50 of rescuing macrophage viability): 2.05 µM
single-agent antifungal activity in vitro (Aspergillus fumigatus): no single-agent antifungal activity was observed
metabolic stability category ([6]; 30 minutes, 1 μM): unstable (compound concentration remaining in the microsomal suspension after incubation for 30 minutes was ≤ 50% of the starting concentration (1 μM))
remaining at 0.5 h, 1 µM ([6]; mouse): < 1%

Reference: publication PMC11880385 (Nature Communications, 2025)
